From PubChem BioAssay (NCI)
Where “and” joins values, the source holds several entries; their conditions need not be identical. Equal values may be shown once.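 96-well plates; 48 h exposure; 5 concentrations. Endpoints by linear interpolation between flanking doses. Not reached: highest tested concentration assigned. Here, GI50 denotes the concentration required for 50% inhibition of growth. TGI: concentration producing complete growth inhibition.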

Experiments:
Assay in all cases: NCI tumour cell line growth inhibition, 48 h
[1] = system: 786-0 renal
[2] = system: OVCAR-5 ovarian
[3] = system: SK-OV-3 ovarian
[4] = system: IGROV1 ovarian
[5] = system: SF-539 CNS
[6] = system: MDA-MB-231 breast
[7] = system: OVCAR-3 ovarian
[8] = system: SN12C renal
[9] = system: OVCAR-8 ovarian
[10] = system: SNB-19 CNS
[11] = system: SK-MEL-5 melanoma
[12] = system: SR leukemia
[13] = system: PC-3 prostate
[14] = system: CCRF-CEM leukemia
[15] = system: HL-60(TB) leukemia
[16] = system: MALME-3M melanoma

Structure (SMILES)	TGI [1] [µM]	TGI [2] [µM]	TGI [3] [µM]	TGI [4] [µM]	TGI [5] [µM]	TGI [6] [µM]	TGI [7] [µM]	TGI [8] [µM]	TGI [9] [µM]	TGI [10] [µM]	TGI [11] [µM]	TGI [12] [µM]	TGI [13] [µM]	TGI [14]	TGI [15]	TGI [16] [µM]	GI50 [12] [µM]	GI50 [14] [µM]	GI50 [15] [µM]
COc1ccc2c(c1)CCC(CN1CCN(CCOC(c3ccc(F)cc3)c3ccc(F)cc3)CC1)C2O (stereo not drawn)	25.2	28.6	31.5	28.4	51.6	27.4	32.5	34	27.4	31.5	20.1	> 100	24	48.3 µM	14.6 µM	28			
CN(C)CCn1c(=O)oc2cc(C(=O)CN3CCOCC3)ccc21	> 100	> 100	> 100	> 100	> 100	> 100	> 100	> 100	> 100	> 100	> 100	> 100	> 100	> 100 µM	> 100 µM	> 100			
CCOC(=O)c1c(C)noc1/N=N/N(CCO)CCO	> 100	> 100	> 100	> 100		> 100	59.4	> 100	> 100	> 100	32.5	66.1	> 100	59.3 µM	> 100 µM	> 100			
COc1cccc(CCn2c(N)c(C(=O)O)c3ccc([N+](=O)[O-])cc3c2=O)c1	> 100	> 100	> 100	> 100		72.8	> 100	> 100	> 100	> 100	> 100	> 100	> 100	> 100 µM	> 100 µM	> 100			
CN(C)Cc1cc(C(=O)/C=C/c2ccc(Br)cc2)cc(CN(C)C)c1O	19	34		26.3	31.9	12.1	17	14.8	20.8	26.6	28.5	50.6	10.2	26.7 µM	20.5 µM	34.6			
OC12CC3c4ccccc4NC3C3Oc4cccc5c4C31CCN(CC1CC1)C2C5 (stereo not drawn)	32.2	46.3	34.6	29.8	90.5	32.4	30.7	34.4	32.3	36.8	31.5	59	32.1	71 µM		34.9			
COc1cc(/C=C2\N=C(c3ccccc3)N(c3nc4cc(C)c(C)cc4s3)C2=O)cc(OC)c1OC	> 100	84.2	> 100	> 100	51.4	> 100	49.1	99.1	47.6	> 100	> 100	53.1	> 100	21.8 µM	39.7 µM				
COC1/C=C\OC2(C)Oc3c(C)c(O)c4c(O)c(c(/C=N\OCCCc5ccccc5)c(O)c4c3C2=O)NC(=O)/C(C)=C\C=C/C(C)C(O)C(C)C(O)C(C)C(OC(C)=O)C1C (stereo not drawn)	9.81	20.4	15.4	6.74	7.3	7.97	9.61	7.66	17.8	19.7	3.55	5.98	11.2	6.35 µM	5.38 µM	12			
COC(=O)C1=C([C@H]2COC(C)(C)O2)[C@H]2C[C@@H]1[C@@H]1OC(C)(C)O[C@@H]12	> 100	> 100	> 100	> 100	> 100	> 100	> 100	> 100	> 100	> 100	> 100	> 100	> 100	> 100 µM	> 100 µM	> 100			
Cc1cc(S(=O)(=O)Nc2nc3ccccc3[nH]2)c(S)cc1Cl	> 100	> 100	> 100	> 100	> 100	> 100	> 100	> 100	> 100	> 100	> 100	> 100	> 100	80.6 µM	> 100 µM				
O=S(=O)(O)c1cc(N=Nc2cc(S(=O)(=O)O)c3ccccc3c2O)ccc1/C=C/c1ccc(N=Nc2cc(S(=O)(=O)O)c3ccccc3c2O)cc1S(=O)(=O)O	> 1000	472	> 876	> 873	> 667	82.1	> 1000	> 1000	> 1000	> 1000	239	70.6	986	42.5 µM and 92.7 µM	41.2 µM and 104 µM	> 494	32.8	32.5	43.4
Cc1ccc(S(=O)(=O)NC(=O)NC(C(=O)O)C(C)O)cc1 (stereo not drawn)	> 100	> 100	> 100	> 100	> 100	> 100		> 100	> 100	> 100	> 100	> 100	> 100	> 100 µM	> 100 µM	> 100			
FC(F)(F)c1ccc2c(c1)nc(Cc1ccc(Cl)c(Cl)c1)n2CC1CCCN2CCCCC12 (stereo not drawn)	30.7	46.2	90	> 100	40	48.7	82.3	42.8	> 100	53.1	30.3	74.6	> 100		51.3 µM	28.6			
C=C1C(=O)CCC1C(=O)O (stereo not drawn)	> 100	> 100	> 100	> 100	> 100	> 100	> 100	> 100	> 100	> 100	> 100	> 100	> 100	> 100 µM	> 100 µM	> 100			
CC1(C)C(=O)N(O)C(C)(C)N1N=O	> 10	> 10				> 10	> 10	> 10	> 10	> 10		> 10	> 10	> 10 µM	> 10 µM	> 10			
N#CC(c1ccccc1)N(CCc1ccccc1)C(=O)c1ccccc1 (stereo not drawn)	> 91.4	> 100	> 100	> 100	> 84.7	> 100	> 100	> 100	> 100	> 81	> 100	> 100	> 100	> 100 µM	> 100 µM	> 100			
C=C(CN(C)C)C(=O)c1ccc(C)cc1C	12.5	31.1	39.6	17.7	30	52.1	21.3	33.4	37.4	57.7	28.8	4.26	31.1	2.14 µM	11.6 µM	20.2			
CC(=O)/C(N=Nc1ccc(-n2c(C)nc3ccc(Br)cc3c2=O)cc1)=C(/C)O	> 100	> 100	> 100	> 100	> 100	> 100	> 100	> 100	> 100	> 100	> 100	> 100	> 100	> 100 µM	> 100 µM				
C/C(=N/NC(=S)N(C)CCc1ccccn1)c1cnccn1	6.8	22	0.947		28	21.2	19	10	0.385	19	17.8	> 100	16.1	> 68.2 µM	> 100 µM	5.11			
NC(N)=NCc1ccc2c(c1)OCO2	> 100	> 100	> 100	> 100	> 100	> 100	> 100			> 100	49.7	> 100	> 100	> 100 µM	> 100 µM	> 100			
c1ccc(CN2CCCN3CCN(CCCN(Cc4ccccc4)CC3)CC2)cc1	> 100	> 100	> 100	> 100	> 100	> 100	> 100	> 100	> 100	> 100	36.1	> 100	> 100	> 100 µM	82.3 µM				
CCc1cccc(CC)c1Nc1nc2c(s1)C(=O)c1ccccc1C2=O	36	39.7	89.8	25.7	49.1	41.4	34	47.9		31.9	47.9	89.5	30.2	> 100 µM	> 100 µM	31.5			
CCOC(=O)/C(=C\c1ccnc2ccccc12)P(=O)(OCC)OCC	6.14	6.78	15.5	4.33	3.32	8.84	4.52	9.19	7.96	15.3	10.7	5.38	16.8	1.96 µM		3.71			
CC(=O)/C=C(/C=N/O)c1ccccc1	> 100	> 100	> 100	> 100	> 100	> 100	> 100	> 100	> 100	> 100	> 100	> 100	> 100	> 100 µM		> 100			
COC(=O)c1ccc(/C=C2\Cc3ccccc3C2=O)cc1	> 100		> 100		> 100	> 100	> 100	> 100	> 100	> 100	> 100	> 100	> 100	> 100 µM	> 100 µM				
CN(C(=O)[C@@H](NC(=O)OC(C)(C)C)c1ccccc1)[C@H]1CCCC[C@@H]1N1CCCC1	> 100	> 100	> 100	> 100	> 100	> 100	> 100	> 100	> 100	> 100	> 100	> 100	> 100		> 100 µM				
N#C/C(=C\c1ccc(F)cc1)c1nc2ccccc2c(=O)[nH]1	> 100	> 100	> 100	> 100	> 100	> 100		> 100	> 100	> 100		> 100	> 100	> 100 µM	> 100 µM	> 100			
CC1=C(C(=O)NNC(=O)C(N)=O)CC(C(=O)NNC(=O)C(N)=O)=C(C)N1	> 100	> 100	> 100	> 100	> 100	> 100	> 100	> 100	> 100	> 100	> 100	> 100	> 100	> 100 µM	> 100 µM				
N#Cc1nc(Sc2cnsn2)c(Sc2cnsn2)nc1C#N	33.6	38.8	32.1	37.3	41.4	48.7	22.1	56.3	> 75.5	> 78.1	29.4	> 100	51		6.24 µM	33.3			
c1cc2[nH]snc2c2cncc12	> 100	> 100	> 100	> 100	> 100	> 100	> 100	> 100	> 100		> 100	> 100	> 100	> 100 µM	> 100 µM	> 100			
